{"source": "paper PMC7562955", "about": "(Nature Communications, 2020)", "target": "T1, TLR7 (Homo sapiens, UniProt Q9NYK1)", "T1 sequence (Q9NYK1 27-1049)": "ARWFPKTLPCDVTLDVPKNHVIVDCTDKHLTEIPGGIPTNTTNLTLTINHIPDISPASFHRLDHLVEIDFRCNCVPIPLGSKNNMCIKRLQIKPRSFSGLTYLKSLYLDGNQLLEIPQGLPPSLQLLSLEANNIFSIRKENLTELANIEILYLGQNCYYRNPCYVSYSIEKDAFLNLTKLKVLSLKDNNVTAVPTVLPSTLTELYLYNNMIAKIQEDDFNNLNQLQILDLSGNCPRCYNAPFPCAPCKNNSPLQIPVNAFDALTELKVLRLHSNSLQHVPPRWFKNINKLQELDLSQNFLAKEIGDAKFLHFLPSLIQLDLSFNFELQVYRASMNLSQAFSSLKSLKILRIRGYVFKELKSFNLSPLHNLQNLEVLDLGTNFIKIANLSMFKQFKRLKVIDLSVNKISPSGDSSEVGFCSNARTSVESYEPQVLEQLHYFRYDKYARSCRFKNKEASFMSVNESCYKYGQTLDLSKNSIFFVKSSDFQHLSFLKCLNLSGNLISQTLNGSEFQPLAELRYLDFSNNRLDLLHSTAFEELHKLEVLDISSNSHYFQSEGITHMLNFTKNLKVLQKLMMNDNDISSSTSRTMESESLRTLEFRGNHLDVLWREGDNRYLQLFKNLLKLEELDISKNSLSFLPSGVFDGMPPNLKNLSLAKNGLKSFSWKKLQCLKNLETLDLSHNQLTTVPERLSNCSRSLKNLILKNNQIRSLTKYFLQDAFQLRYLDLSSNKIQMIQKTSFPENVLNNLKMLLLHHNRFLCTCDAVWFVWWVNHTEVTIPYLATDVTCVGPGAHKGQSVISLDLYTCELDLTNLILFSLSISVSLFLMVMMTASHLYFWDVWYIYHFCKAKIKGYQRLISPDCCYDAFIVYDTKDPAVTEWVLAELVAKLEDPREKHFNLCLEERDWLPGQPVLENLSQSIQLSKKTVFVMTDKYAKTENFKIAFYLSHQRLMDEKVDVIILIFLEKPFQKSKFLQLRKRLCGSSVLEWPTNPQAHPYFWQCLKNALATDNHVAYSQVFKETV", "experiment": "Dose-response relationship between antagonist and R848, human TLR7 reporter gene assay", "assay_type": "cell-based", "parameters": "host or cells: HEK293 (TLR7/NF-κB/SEAPorter)", "description": "Compounds were dissolved in dimethyl sulfoxide. Human TLR7 reporter cell line (Novus Biological) were seeded in 96-well microtiter plate (AGC techno glass) at 5 × 10^4 cells/well in DMEM (GIBCO) with 10% fetal bovine serum (GIBCO), and 10 μg ml^−1 Blastcidin S HCl (GIBCO) and incubated at 37 °C in 5% CO2. The plates were incubated over-night and then addition with various concentrations of compound. After 30 min, R848 (human TLR7/8 ligand) that was diluted with the medium was added, wherein final concentration was adjusted to 0.01, 0.03, 0.1, 0.3, 1, 3, 10, 30, 100, 300 and 1000 μM. The plates were then incubated an additional 20 ± 1 h at 37 °C in 5% CO2, and then the SEAP activity was measured as activation of human TLR7. The SEAP activity was evaluated as follows: pNPP (Invitrogen) was added to the incubated sample (50 μl/well); after 15 min, 4 mol l^−1 sodium hydroxide solution (nacalai tesque) was added thereto (50 μl/well) to quench the reaction; and the absorbance of each sample was measured at 405 nm with microplate reader SpectraMax M4 (Molecular Devices).", "data": [{"smiles": "CCOc1nc(C)c2nc(-c3cncc(F)c3)n(Cc3ccc(CN4C[C@@H]5C[C@H]4CN5C)cc3)c2n1", "note": "[Cpd-7]", "values": [{"measurement": "TLR7 reporter signal", "setting": "Cpd-7 1 µM, log10[R848 (µM)] 2", "result": 58.664}, {"measurement": "TLR7 reporter signal", "setting": "Cpd-7 1 µM, log10[R848 (µM)] 2.47712", "result": 94.6679}, {"measurement": "TLR7 reporter signal", "setting": "Cpd-7 1 µM, log10[R848 (µM)] 3", "result": 98.5819}, {"measurement": "TLR7 reporter signal", "setting": "Cpd-7 1 µM, log10[R848 (µM)] -0.522879", "result": 2.201}, {"measurement": "TLR7 reporter signal", "setting": "Cpd-7 1 µM, log10[R848 (µM)] -1", "result": 1.343}, {"measurement": "TLR7 reporter signal", "setting": "Cpd-7 1 µM, log10[R848 (µM)] -1.52288", "result": 0.6276}, {"measurement": "TLR7 reporter signal", "setting": "Cpd-7 1 µM, log10[R848 (µM)] -2", "result": -0.3625}, {"measurement": "TLR7 reporter signal", "setting": "Cpd-7 3 µM, log10[R848 (µM)] 0", "result": 1.3957}, {"measurement": "TLR7 reporter signal", "setting": "Cpd-7 3 µM, log10[R848 (µM)] 0.477121", "result": 2.034}, {"measurement": "TLR7 reporter signal", "setting": "Cpd-7 3 µM, log10[R848 (µM)] 1", "result": 1.935}, {"measurement": "TLR7 reporter signal", "setting": "Cpd-7 3 µM, log10[R848 (µM)] 1.47712", "result": 4.379}, {"measurement": "TLR7 reporter signal", "setting": "Cpd-7 3 µM, log10[R848 (µM)] 2", "result": 17.1093}, {"measurement": "TLR7 reporter signal", "setting": "Cpd-7 3 µM, log10[R848 (µM)] 2.47712", "result": 59.4864}, {"measurement": "TLR7 reporter signal", "setting": "Cpd-7 3 µM, log10[R848 (µM)] 3", "result": 88.3569}, {"measurement": "TLR7 reporter signal", "setting": "Cpd-7 3 µM, log10[R848 (µM)] -0.522879", "result": 2.494}, {"measurement": "TLR7 reporter signal", "setting": "Cpd-7 3 µM, log10[R848 (µM)] -1", "result": 1.782}, {"measurement": "TLR7 reporter signal", "setting": "Cpd-7 3 µM, log10[R848 (µM)] -1.52288", "result": 0.9374}, {"measurement": "TLR7 reporter signal", "setting": "Cpd-7 3 µM, log10[R848 (µM)] -2", "result": -0.1469}, {"measurement": "TLR7 reporter signal", "setting": "Cpd-7 10 µM, log10[R848 (µM)] 0", "result": 1.161}, {"measurement": "TLR7 reporter signal", "setting": "Cpd-7 10 µM, log10[R848 (µM)] 0.477121", "result": 1.935}, {"measurement": "TLR7 reporter signal", "setting": "Cpd-7 10 µM, log10[R848 (µM)] 1", "result": 1.487}, {"measurement": "TLR7 reporter signal", "setting": "Cpd-7 10 µM, log10[R848 (µM)] 1.47712", "result": 2.632}, {"measurement": "TLR7 reporter signal", "setting": "Cpd-7 10 µM, log10[R848 (µM)] 2", "result": 3.275}, {"measurement": "TLR7 reporter signal", "setting": "Cpd-7 10 µM, log10[R848 (µM)] 2.47712", "result": 13.6775}, {"measurement": "TLR7 reporter signal", "setting": "Cpd-7 10 µM, log10[R848 (µM)] 3", "result": 50.3984}, {"measurement": "TLR7 reporter signal", "setting": "Cpd-7 10 µM, log10[R848 (µM)] -0.522879", "result": 2.055}, {"measurement": "TLR7 reporter signal", "setting": "Cpd-7 10 µM, log10[R848 (µM)] -1", "result": 1.301}, {"measurement": "TLR7 reporter signal", "setting": "Cpd-7 10 µM, log10[R848 (µM)] -1.52288", "result": 0.4759}, {"measurement": "TLR7 reporter signal", "setting": "Cpd-7 10 µM, log10[R848 (µM)] -2", "result": -0.6883}, {"measurement": "TLR7 reporter signal", "setting": "Cpd-7 30 µM, log10[R848 (µM)] 0", "result": 1.6017}, {"measurement": "TLR7 reporter signal", "setting": "Cpd-7 30 µM, log10[R848 (µM)] 0.477121", "result": 2.2708}, {"measurement": "TLR7 reporter signal", "setting": "Cpd-7 30 µM, log10[R848 (µM)] 1", "result": 2.316}, {"measurement": "TLR7 reporter signal", "setting": "Cpd-7 30 µM, log10[R848 (µM)] 1.47712", "result": 3.334}, {"measurement": "TLR7 reporter signal", "setting": "Cpd-7 30 µM, log10[R848 (µM)] 2", "result": 2.078}, {"measurement": "TLR7 reporter signal", "setting": "Cpd-7 30 µM, log10[R848 (µM)] 2.47712", "result": 2.285}, {"measurement": "TLR7 reporter signal", "setting": "Cpd-7 30 µM, log10[R848 (µM)] 3", "result": 8.593}, {"measurement": "TLR7 reporter signal", "setting": "Cpd-7 30 µM, log10[R848 (µM)] -0.522879", "result": 2.676}, {"measurement": "TLR7 reporter signal", "setting": "Cpd-7 30 µM, log10[R848 (µM)] -1", "result": 1.493}, {"measurement": "TLR7 reporter signal", "setting": "Cpd-7 30 µM, log10[R848 (µM)] -1.52288", "result": 0.7617}, {"measurement": "TLR7 reporter signal", "setting": "Cpd-7 30 µM, log10[R848 (µM)] -2", "result": -0.5701}, {"measurement": "TLR7 reporter signal", "setting": "Cpd-7 100 µM, log10[R848 (µM)] 0", "result": 1.319}, {"measurement": "TLR7 reporter signal", "setting": "Cpd-7 100 µM, log10[R848 (µM)] 0.477121", "result": 2.528}, {"measurement": "TLR7 reporter signal", "setting": "Cpd-7 100 µM, log10[R848 (µM)] 1", "result": 1.127}, {"measurement": "TLR7 reporter signal", "setting": "Cpd-7 100 µM, log10[R848 (µM)] 1.47712", "result": 2.558}, {"measurement": "TLR7 reporter signal", "setting": "Cpd-7 100 µM, log10[R848 (µM)] 2", "result": 1.63}, {"measurement": "TLR7 reporter signal", "setting": "Cpd-7 100 µM, log10[R848 (µM)] 2.47712", "result": 1.53}, {"measurement": "TLR7 reporter signal", "setting": "Cpd-7 100 µM, log10[R848 (µM)] 3", "result": 0.3114}, {"measurement": "TLR7 reporter signal", "setting": "Cpd-7 100 µM, log10[R848 (µM)] -0.522879", "result": 1.865}, {"measurement": "TLR7 reporter signal", "setting": "Cpd-7 100 µM, log10[R848 (µM)] -1", "result": 1.004}, {"measurement": "TLR7 reporter signal", "setting": "Cpd-7 100 µM, log10[R848 (µM)] -1.52288", "result": 0.5685}, {"measurement": "TLR7 reporter signal", "setting": "Cpd-7 100 µM, log10[R848 (µM)] -2", "result": -0.7138}]}]}
